The values that follow come from ChEMBL document CHEMBL5230176, “X-ray structure of human aldo-keto reductase 1C3 in complex with a bile acid fused tetrazole inhibitor: experimental validation, molecular docking and structural analysis” (RSC Med Chem, 2023).

Molecules are shown by their SMILES. Activity calls are given as the source filed them. The calls are words filed in the database; no cut-off is given here.

One assay addresses T1, Aldo-keto reductase family 1 member C2 (Homo sapiens) (UniProt P52895).
T1 sequence (whole entry): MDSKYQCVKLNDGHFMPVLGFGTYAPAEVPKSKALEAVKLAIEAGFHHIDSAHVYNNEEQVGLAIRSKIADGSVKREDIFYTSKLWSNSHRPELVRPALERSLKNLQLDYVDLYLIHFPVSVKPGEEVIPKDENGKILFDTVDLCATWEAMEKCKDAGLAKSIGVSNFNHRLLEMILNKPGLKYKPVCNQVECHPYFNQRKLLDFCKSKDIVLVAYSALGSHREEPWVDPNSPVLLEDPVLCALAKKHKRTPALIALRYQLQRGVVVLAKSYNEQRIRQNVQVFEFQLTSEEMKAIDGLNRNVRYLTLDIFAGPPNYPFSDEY
The experiment in a line: Inhibition of 6 His-tagged human AKR1C2 expressed in Escherichia coli BL21 (DE3) cells using 9,10-phenanthrenequinone as substrate assessed as substrate reduction by measuring change in NADPH consumption at 40 uM incubated for 15 mins by absorbance based spectroscopic analysis relative to control.
As to `C[C@H](CCC(=O)O)[C@H]1CC[C@H]2[C@@H]3CC[C@@H]4C[C@H](O)CC[C@]4(C)[C@H]3Cc3nnnn3[C@]12C`, the inhibition (as a rule, the change of the read-out against control, counted positive when it falls) is 13%.

Another assay addresses T2, Aldo-keto reductase family 1 member C3 (Homo sapiens) (UniProt P42330).
T2 sequence (whole entry): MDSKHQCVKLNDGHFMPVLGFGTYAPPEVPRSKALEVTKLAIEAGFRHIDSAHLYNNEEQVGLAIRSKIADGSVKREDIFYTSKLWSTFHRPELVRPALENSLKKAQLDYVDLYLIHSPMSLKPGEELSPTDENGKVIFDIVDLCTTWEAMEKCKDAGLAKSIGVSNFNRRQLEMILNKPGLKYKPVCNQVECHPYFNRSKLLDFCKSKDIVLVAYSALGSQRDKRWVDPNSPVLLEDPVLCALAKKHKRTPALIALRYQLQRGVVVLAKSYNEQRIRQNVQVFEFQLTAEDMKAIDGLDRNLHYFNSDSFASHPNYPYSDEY
The experiment in a line: Inhibition of 6 His-tagged human AKR1C3 expressed in Escherichia coli BL21 (DE3) cells using 9,10-phenanthrenequinone as substrate assessed as substrate reduction by measuring change in NADPH fluorescence at 33.3 uM incubated for 30 mins by fluorescence spectroscopic analysis relative to control.
Take `CCOC(=O)CC[C@@H](C)[C@H]1CC[C@H]2[C@H]3[C@H](CC[C@]12C)[C@@]1(C)CC[C@@H](OC(C)=O)C[C@H]1Cc1nnnn13`: the inhibition result is “inactive”. For `COC(=O)CC[C@@H](C)[C@H]1CC[C@H]2[C@H]3[C@H](C[C@H](OC(C)=O)[C@]12C)[C@@]1(C)CC[C@@H](OC(C)=O)C[C@H]1Cc1nnnn13`, the inhibition result was “inactive”. On the same count and under the same terms, in the case of `C[C@H](CCC(=O)O)[C@H]1CC[C@H]2[C@H]3[C@H](C[C@H](O)[C@]12C)[C@@]1(C)CC[C@@H](O)C[C@H]1Cc1nnnn13` it was “inactive”; in that of `C[C@H](CCC(=O)O)[C@H]1CC[C@H]2[C@H]3[C@H](CC[C@]12C)[C@@]1(C)CC[C@@H](O)C[C@H]1Cc1nnnn13`, 14.2%; in that of `C[C@H](CCC(=O)O)[C@H]1CC[C@H]2[C@@H]3CC[C@@H]4C[C@H](O)CC[C@]4(C)[C@H]3Cc3nnnn3[C@]12C`, 77.9%.
